Reference: patent US20050209278A1, “Piperidinyl- and piperazinyl-sulfonylmethyl hydroxamic acids and their use as protease inhibitors” (priority 2002, published 2005)
“And” between values parts separate entries of the source, which are not always exact repeats. Identical values can stand only once.

Tests used:
[1] = molecular target: T1, MMP-13 (Homo sapiens, UniProt P45452); experiment: In vitro MMP inhibition, Ki determination (fluorogenic substrate II); assay type: biochemical; details: value outside parentheses; read-out: MMP-13 Ki
T1 construct: made in house; host or cells: baculovirus / insect cells
In short: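 Ki determined with human recombinant MMP-13, baculovirus-expressed as proenzyme and activated with APMA. Fluorogenic MCA/Dpa substrate II at 4 μM (at or below Km) with low enzyme in Tris buffer pH 7.5 with CaCl2. Incubation was 1 h at room temperature, with fluorescence read at 330/420 nm.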

[2] = molecular target: T2, MMP-9 (Homo sapiens, UniProt P14780); experiment: as above; assay type: biochemical; details: value outside parentheses
T2 construct: made in house; host or cells: MMP-9-transfected HT1080 cells (spent media)
In short: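 HT1080-derived MMP-9, activated with APMA, trypsin or MMP-3, incubated 1 hr at room temperature with inhibitor and 4 μM fluorogenic substrate II (at or below Km) in pH 7.5 Tris/NaCl/CaCl2 buffer; ex 330/em 420 nm. Ki from Morrison-equation regression, without substrate correction.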

T2 sequence (P14780 107-707 limits assumed): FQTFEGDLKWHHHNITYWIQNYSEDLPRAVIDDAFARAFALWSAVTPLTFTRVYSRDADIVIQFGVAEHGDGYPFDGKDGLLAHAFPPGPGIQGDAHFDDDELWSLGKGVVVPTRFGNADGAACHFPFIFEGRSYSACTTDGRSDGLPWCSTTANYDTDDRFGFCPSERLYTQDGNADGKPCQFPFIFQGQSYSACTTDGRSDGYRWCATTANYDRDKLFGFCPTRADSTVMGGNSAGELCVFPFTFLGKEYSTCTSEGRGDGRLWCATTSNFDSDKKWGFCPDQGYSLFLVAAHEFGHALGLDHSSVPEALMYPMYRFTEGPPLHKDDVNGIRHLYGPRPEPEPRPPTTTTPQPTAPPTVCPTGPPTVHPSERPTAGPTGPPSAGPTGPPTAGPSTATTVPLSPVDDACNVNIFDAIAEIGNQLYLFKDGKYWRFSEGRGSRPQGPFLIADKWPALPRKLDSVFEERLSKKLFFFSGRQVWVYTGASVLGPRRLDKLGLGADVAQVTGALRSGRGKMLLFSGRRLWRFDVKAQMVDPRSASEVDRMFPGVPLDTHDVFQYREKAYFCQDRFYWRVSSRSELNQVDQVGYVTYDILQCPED

Compound | Ki [1] | Ki [2]
O=C(NO)C1(S(=O)(=O)N2CCC(c3ccc(CCCC(F)(F)F)cn3)CC2)CCOCC1 [Example 338] | 0.302 nM | 0.738 nM
O=C(NO)C1(S(=O)(=O)N2CCN(c3ccc(-c4cccc(OC(F)(F)F)c4)cn3)CC2)CCOCC1 [Example 319] | 4.62 nM | 923 nM
O=C(NO)C1(S(=O)(=O)N2CCC(c3ccc(OC(F)(F)C(F)F)cc3)CC2)CCOCC1 [Example 337] | 0.708 nM | 0.792 nM
O=C(NO)C1(S(=O)(=O)N2CCC(COCC(F)(F)C(F)(F)C(F)(F)C(F)F)CC2)CCOCC1 [Example 378] | 48.4 nM | 219 nM
O=C(NO)C1(S(=O)(=O)N2CCC(c3ccc(CCC(F)(F)C(F)(F)F)cn3)CC2)CCOCC1 [Example 340] | 0.107 nM | 0.222 nM
N#Cc1cccc(-c2cnc(N3CCN(S(=O)(=O)C4(C(=O)NO)CCOCC4)CC3)s2)c1 [Example 384] | 0.272 nM | 6.4 nM
O=C(NO)C1(S(=O)(=O)N2CCN(c3ccc(-c4ccc(OC(F)(F)F)cc4)cc3)CC2)CCOCC1 [Example 327] | 0.499 nM | 35.6 nM
O=C(NO)C1(S(=O)(=O)N2CCC(c3ccc(OCC(F)(F)C(F)F)cc3)CC2)CCN(C2CC2)CC1 [Example 350] | 0.523 nM | 1.21 nM
CCN1CCC(C(=O)NO)(S(=O)(=O)N2CCN(c3ccc(-c4ccccc4)c(F)c3)CC2)CC1 [Example 341] | 2.59 nM | 3.77 nM
CC(C)(C)c1ccc(-c2cnc(N3CCN(S(=O)(=O)C4(C(=O)NO)CCOCC4)CC3)s2)cc1 [Example 347] | 1.48 nM | 6.38 nM
O=C(NO)C1(S(=O)(=O)N2CCC(c3ccc(-c4cccnc4)cn3)CC2)CCOCC1 [Example 390] | 6.72 nM | 53.2 nM
CCCCc1ccc(C2CCN(S(=O)(=O)C3(C(=O)NO)CCNCC3)CC2)nc1 [Example 388] | 15.1 nM | 2.3 nM
COc1ccccc1-c1ccc(N2CCN(S(=O)(=O)C3(C(=O)NO)CCOCC3)CC2)nc1 [Example 318] | 62.3 nM | 1380 nM
Cc1ccc(-c2cnc(N3CCN(S(=O)(=O)C4(C(=O)NO)CCOCC4)CC3)s2)cc1 [Example 344] | 0.267 nM | 0.492 nM
O=C(NO)C1(S(=O)(=O)N2CCC(c3ccc(OCC(F)(F)F)cc3)CC2)CCOCC1 [Example 357] | 1.2 nM | 0.718 nM
O=C(NO)C1(S(=O)(=O)N2CCN(c3ccc(CCCC(F)(F)F)cn3)CC2)CCOCC1 [Example 358] | 0.15 nM | 0.86 nM
O=C(NO)C1(S(=O)(=O)N2CCN(c3ncc(-c4cccc(-c5ccccc5)c4)s3)CC2)CCOCC1 [Example 365] | 101 nM | 1240 nM
O=C(NO)C1(S(=O)(=O)N2CCN(c3ccc(-c4ccccc4)cn3)CC2)CCOCC1 [Example 372] | 0.485 nM and 0.654 nM | 0.665 nM and 0.75 nM
CCCCCc1cccc(N2CCN(S(=O)(=O)C3(C(=O)NO)CCOCC3)CC2)c1 [Example 356] | 35.3 nM | 184 nM
O=C(NO)C1(S(=O)(=O)N2CCN(c3ncc(-c4cccnc4)s3)CC2)CCOCC1 [Example 382] | 0.647 nM | 4.26 nM
O=C(NO)C1(S(=O)(=O)N2CCN(c3cnn(-c4ccccc4)c(=O)c3Cl)CC2)CCOCC1 [Example 329] | > 10000 nM | > 10000 nM
O=C(NO)C1(S(=O)(=O)N2CCN(c3ccc(-c4ccc(F)cc4F)cn3)CC2)CCOCC1 [Example 316] | 0.77 nM | 2.39 nM
COc1ccc(-c2cnc(N3CCN(S(=O)(=O)C4(C(=O)NO)CCOCC4)CC3)s2)cc1OC [Example 371] | 1.35 nM | 6.5 nM
O=C(NO)C1(S(=O)(=O)N2CCN(c3ccc(Br)cn3)CC2)CCOCC1 [Example 331] | 0.193 nM | 1.7 nM

Compound | Ki [1] | Ki [2]
O=C(NO)C1(S(=O)(=O)N2CCN(c3ccc(CCCC(F)(F)F)c(F)c3)CC2)CCOCC1 [Example 389] | 0.47 nM | 1.34 nM
O=C(NO)C1(S(=O)(=O)N2CCN(c3ncc(-c4ccc(O)cc4)s3)CC2)CCOCC1 [Example 368] | 0.329 nM | 0.423 nM
Cc1cccc(-c2cnc(N3CCN(S(=O)(=O)C4(C(=O)NO)CCOCC4)CC3)s2)c1 [Example 370] | 4.16 nM | 9.1 nM
Cc1ccccc1-c1cnc(N2CCN(S(=O)(=O)C3(C(=O)NO)CCOCC3)CC2)s1 [Example 348] | 2.99 nM | 9.57 nM
O=C(NO)C1(S(=O)(=O)N2CCN(c3ncc(/C=C/c4ccccc4)s3)CC2)CCOCC1 [Example 361] | 1.06 nM and 1.07 nM | 36.1 nM and 32.9 nM
O=C(NO)C1(S(=O)(=O)N2CCC(c3ccc(CCCC(F)(F)F)cc3)CC2)CCN(C2CC2)CC1 [Example 351] | 0.359 nM | 0.431 nM
O=C(NO)C1(S(=O)(=O)N2CCC(N3CCN(c4ccc(Cl)cc4)CC3)CC2)CCOCC1 [Example 315] | 420 nM | 4960 nM
O=C(NO)C1(S(=O)(=O)N2CCC(c3ccc(-c4ccccc4)cn3)CC2)CCOCC1 [Example 392] | 4.23 nM | 2.33 nM
O=C(NO)C1(S(=O)(=O)N2CCC(COCC(F)(F)C(F)(F)C(F)(F)F)CC2)CCOCC1 [Example 377] | 87.5 nM | 174 nM
O=C(NO)C1(S(=O)(=O)N2CCN(c3ncc(-c4ccccn4)s3)CC2)CCOCC1 [Example 387] | 31 nM | 34.6 nM
O=C(NO)C1(S(=O)(=O)N2CCC(COCC(F)(F)C(F)(F)F)CC2)CCOCC1 [Example 376] | 31.2 nM | 114 nM
O=C(NO)C1(S(=O)(=O)N2CCC(COCC(F)(F)C(F)F)CC2)CCOCC1 [Example 375] | 509 nM | 105 nM
CCCCc1ccc(-c2cnc(N3CCN(S(=O)(=O)C4(C(=O)NO)CCOCC4)CC3)s2)cc1 [Example 379] | 0.167 nM | 3.97 nM
COC(=O)c1ccc(N2CCN(S(=O)(=O)C3(C(=O)NO)CCOCC3)CC2)cc1 [Example 324] | 3.55 nM | 2.39 nM
O=C(NO)C1(S(=O)(=O)N2CCC(c3ccc(CCC(F)(F)F)cn3)CC2)CCOCC1 [Example 367] | 0.835 nM | 0.625 nM
O=C(NO)C1(S(=O)(=O)N2CCN(c3cnn(CCCC(F)(F)F)c(=O)c3)CC2)CCOCC1 [Example 321] | > 10000 nM | > 10000 nM
O=C(NO)C1(S(=O)(=O)N2CCC(c3ccc(CCCC(F)(F)F)cc3)CC2)CCOCC1 [Example 353] | 0.378 nM | 0.546 nM
O=C(NO)C1(S(=O)(=O)N2CCN(c3ccc(OCC(F)(F)C(F)F)cc3)CC2)CCOCC1 [Example 326] | 0.31 nM | 2.03 nM
O=C(NO)C1(S(=O)(=O)N2CCN(c3ncc(-c4ccc([N+](=O)[O-])cc4)s3)CC2)CCOCC1 [Example 363] | 0.076 nM | 1.74 nM
CCc1ccc(C2CCN(S(=O)(=O)C3(C(=O)NO)CCN(CCOC)CC3)CC2)s1 [Example 314] | 19.6 nM | 22 nM
CCCCOc1ccc(N2CCN(S(=O)(=O)C3(C(=O)NO)CCN(CCOC)CC3)CC2)nc1 [Example 325] | 0.09 nM | 0.32 nM
CCCCc1ccc(C2CCN(S(=O)(=O)C3(C(=O)NO)CCOCC3)CC2)nc1 [Example 323] | 0.65 nM | 
O=C(NO)C1(S(=O)(=O)N2CCN(c3ncc(-c4ccc(OC(F)(F)F)cc4)s3)CC2)CCOCC1 [Example 364] | 0.106 nM | 0.802 nM
